In publication PMC7913210 (Pharmaceutics, 2021):

Assays:
[1] = Parent-metabolite PK model (non-linear mixed-effect modeling) after SC LHA administration; assay type: in vivo, Sprague-Dawley rats
Description: In addition, a combined transit model with first-order absorption was evaluated to better describe absorption phase. In the transit model, the optimal number of transit compartments (NTR) and the mean transit time (MTT) were estimated. The transit model introduced three parameters—Ktr, NTR, and MTT. Two of these three parameters were estimated. The relationship of these parameters is shown in the following equation: MTT= (NTR+1)/Ktr The inter-individual variability (IIV) was assessed using an exponential variability model as following equation: Pi=Ptv ×exp (ETA) where Pi represents the value of the individual PK parameter, Ptv is a typical value for P, and ETA indicates an interindividual random effect with the mean of zero and variance of ω^2. Residual random variability (ε) was calculated using a proportional error model for the three types of observations. Optimal model selection was guided by changes in diagnostic values including twice the negative log like (−2LL), Akaike information Criterion (AIC), Baysian Information Criteria (BIC), visual inspection of various diagnostic plots (goodness of fit plot), and precision of parameter estimates. The visual predictive check (VPC) and boot strap analysis was conducted for non-parametric evaluation of the model. Graphical diagnostics including basic goodness-of-fit plot and other accessory plots were used for single run-based diagnostics during model development. For the final model, the robustness and predictive performance were evaluated using multiple run-based diagnostics such as bootstrapping. A bootstrap procedure was conducted with a total of 1000 bootstrap-resampled datasets from the original dataset. Bootstrap results of median and 95% confidence intervals (CIs, […]) were compared with final parameter estimates. The 95% confidence intervals of parameters obtained from this step were compared with final parameter estimates.

[2] = cited from earlier work
[3] = SC LHA, rats, model estimate (fixed effect)

| Structure (SMILES) | CLm2/F, Apparent Metabolite clearance ([1]; SC LHA, rats, second metabolite (GX), model estimate) [L/h] | potency as anti-arrhythmic agent relative to lidocaine [2] | Vmax, Maximum rate of reaction ([1]; SC LHA, rats, Michaelis-Menten elimination of lidocaine, model estimate) | MTT, Mean Transit Time [1, 3] [h] | Ntr, Number of transit compartments [1, 3] | Fm2, Fraction of the first metabolite converted to second metabolite ([1]; SC LHA, rats, MEGX to GX, model estimate) | CLm1/F, Apparent Metabolite (MEGX) clearance [1, 3] [L/h] | MEGX converted into GX ([1]; model prediction, hyaluronic acid pre-incorporated lidocaine injected subcutaneously) |
| --- | --- | --- | --- | --- | --- | --- | --- | --- |
| Cc1cccc(C)c1NC(=O)CN [GX, glycylxylidide] | 1.09 | ~10% |  |  |  |  |  |  |
| CCN(CC)CC(=O)Nc1c(C)cccc1C [Lidocaine, reference compound] |  |  | 423,962.94 nmol/h | 0.64 | 4.97 |  |  |  |
| CCNCC(=O)Nc1c(C)cccc1C [MEGX, monoethylglycylxylidide] |  | approximately 80% |  |  |  | 0.47 | 14.94 | about 47% |
